This is an account of results in patent US10231954B2, “Neurodegenerative therapies” (LYTIX BIOPHARMA AS, priority 2014, dated 2019).

Type in all cases: biochemical
One assay deals with IRR (Homo sapiens, UniProt P14616). Kind of assay: Kinase profiling IRR. The settings on record: read-out: residual kinase activity, IRR. From the text: (§1) Any value less that 25 is considered to be highly significant inhibition.
The next assay deals with PIM2 (Homo sapiens, UniProt Q9P1W9). Kind of assay: Kinase profiling PIM2. Conditions: read-out: residual kinase activity, PIM2.
Description: as §1

Another assay deals with SIK3 (Homo sapiens, UniProt Q9Y2K2). Kind of assay: Kinase profiling SIK3. The settings on record: read-out: residual kinase activity, SIK3.
Description: as §1

A further assay addresses TIE2 (Homo sapiens, UniProt Q02763). Kind of assay: Kinase profiling TIE2. Conditions: read-out: residual kinase activity, TIE2.
Description: as §1

Another assay addresses TTBK1 (Homo sapiens, UniProt Q5TCY1). Kind of assay: Kinase profiling TTBK1. The settings on record: read-out: residual kinase activity, TTBK1.
Description: as §1

Another assay addresses T1, TSSK1 (Homo sapiens, UniProt Q9BXA7).
T1 sequence (Q9BXA7 1-367): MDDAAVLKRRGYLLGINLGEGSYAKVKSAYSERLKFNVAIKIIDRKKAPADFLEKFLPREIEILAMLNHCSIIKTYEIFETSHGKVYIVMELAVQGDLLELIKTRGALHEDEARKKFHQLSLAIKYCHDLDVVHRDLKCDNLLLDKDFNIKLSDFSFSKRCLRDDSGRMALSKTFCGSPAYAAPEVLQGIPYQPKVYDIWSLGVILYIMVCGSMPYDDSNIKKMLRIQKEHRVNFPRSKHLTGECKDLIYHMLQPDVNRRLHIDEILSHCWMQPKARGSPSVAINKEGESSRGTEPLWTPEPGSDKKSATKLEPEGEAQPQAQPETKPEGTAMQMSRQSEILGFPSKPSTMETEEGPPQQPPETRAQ
Kind of assay: Kinase profiling TSSK1. Conditions: read-out: residual kinase activity, TSSK1.
Description: as §1

Another assay has as its target TESK1 (Homo sapiens, UniProt Q15569). Kind of assay: Kinase profiling TESK1. The settings on record: read-out: residual kinase activity, TESK1.
Description: as §1

The next assay addresses MST4 (Homo sapiens, UniProt Q9P289). Kind of assay: Kinase profiling MST4. The settings on record: read-out: residual kinase activity, MST4.
Description: as §1

For another assay, the target named is IR (Homo sapiens, UniProt P06213). Kind of assay: Kinase profiling IR. Conditions: read-out: residual kinase activity, IR.
Description: as §1

Another assay deals with T2, ZAP70 (Homo sapiens, UniProt P43403).
T2 sequence (P43403 1-619): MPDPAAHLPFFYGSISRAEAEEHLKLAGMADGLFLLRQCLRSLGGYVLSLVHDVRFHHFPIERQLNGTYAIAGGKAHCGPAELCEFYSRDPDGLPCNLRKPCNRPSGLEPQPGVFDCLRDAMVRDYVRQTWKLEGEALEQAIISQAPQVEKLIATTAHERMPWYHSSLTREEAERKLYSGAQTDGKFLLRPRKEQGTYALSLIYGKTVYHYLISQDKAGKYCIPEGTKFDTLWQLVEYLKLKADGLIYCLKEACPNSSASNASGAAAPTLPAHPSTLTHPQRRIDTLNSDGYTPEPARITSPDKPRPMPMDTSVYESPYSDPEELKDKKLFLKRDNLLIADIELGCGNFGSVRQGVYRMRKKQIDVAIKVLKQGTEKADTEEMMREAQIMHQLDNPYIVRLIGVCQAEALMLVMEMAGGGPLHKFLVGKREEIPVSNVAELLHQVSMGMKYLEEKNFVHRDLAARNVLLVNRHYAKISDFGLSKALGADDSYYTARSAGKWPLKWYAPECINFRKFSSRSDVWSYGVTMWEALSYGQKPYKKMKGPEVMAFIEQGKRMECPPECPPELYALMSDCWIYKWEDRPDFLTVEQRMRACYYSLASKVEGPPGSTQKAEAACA
Kind of assay: Kinase profiling ZAP70. Conditions: read-out: residual kinase activity, ZAP70.
Description: as §1

The next assay concerns the target MINK1 (Homo sapiens, UniProt Q8N4C8). Kind of assay: Kinase profiling MINK1. Conditions: read-out: residual kinase activity, MINK1.
Description: as §1

The next assay deals with MST3 (Homo sapiens, UniProt Q9Y6E0). Kind of assay: Kinase profiling MST3. The settings on record: read-out: residual kinase activity, MST3.
Description: as §1

For the next assay, the target named is WNK1 (Homo sapiens, UniProt Q9H4A3). Kind of assay: Kinase profiling WNK1. The settings on record: read-out: residual kinase activity, WNK1.
Description: as §1

For the next assay, the target named is MEKK1 (Homo sapiens, UniProt Q13233). Kind of assay: Kinase profiling MEKK1. Conditions: read-out: residual kinase activity, MEKK1.
Description: as §1

The target in a further assay is CDK2-Cyclin A (Homo sapiens, UniProt P24941). Kind of assay: Kinase profiling CDK2-Cyclin A. The settings on record: read-out: residual kinase activity, CDK2-Cyclin A.
Description: as §1

A further assay deals with PDGFRA (Homo sapiens, UniProt P16234). Kind of assay: Kinase profiling PDGFRA. Conditions: 100 micromolar inhibitor concentration; 100 is no change; read-out: residual kinase activity, PDGFRA.
Description: as §1

The next assay deals with ERK5 (Homo sapiens, UniProt Q13164). Kind of assay: Kinase profiling ERK5. The settings on record: 100 micromolar inhibitor concentration; 100 is no change.
Description: as §1

[1] abbreviates: 100 micromolar inhibitor concentration, 100 is no change.

Where two headings read alike, the source gives them in different places.

Sequence of MST3 (Q9Y6E0 whole entry, species assumed): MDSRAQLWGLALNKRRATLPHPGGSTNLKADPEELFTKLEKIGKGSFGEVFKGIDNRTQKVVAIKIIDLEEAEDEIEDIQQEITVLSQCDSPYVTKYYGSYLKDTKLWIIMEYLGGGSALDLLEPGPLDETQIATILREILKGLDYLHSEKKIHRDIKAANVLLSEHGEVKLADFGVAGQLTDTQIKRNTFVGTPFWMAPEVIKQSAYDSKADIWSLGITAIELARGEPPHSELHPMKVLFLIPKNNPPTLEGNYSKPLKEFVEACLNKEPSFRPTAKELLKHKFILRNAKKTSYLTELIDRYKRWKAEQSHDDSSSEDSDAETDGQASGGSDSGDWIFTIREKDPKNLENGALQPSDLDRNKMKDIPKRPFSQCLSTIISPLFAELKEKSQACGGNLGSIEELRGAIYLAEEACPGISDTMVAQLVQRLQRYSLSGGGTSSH
Sequence of WNK1 (Q9H4A3 whole entry, species assumed): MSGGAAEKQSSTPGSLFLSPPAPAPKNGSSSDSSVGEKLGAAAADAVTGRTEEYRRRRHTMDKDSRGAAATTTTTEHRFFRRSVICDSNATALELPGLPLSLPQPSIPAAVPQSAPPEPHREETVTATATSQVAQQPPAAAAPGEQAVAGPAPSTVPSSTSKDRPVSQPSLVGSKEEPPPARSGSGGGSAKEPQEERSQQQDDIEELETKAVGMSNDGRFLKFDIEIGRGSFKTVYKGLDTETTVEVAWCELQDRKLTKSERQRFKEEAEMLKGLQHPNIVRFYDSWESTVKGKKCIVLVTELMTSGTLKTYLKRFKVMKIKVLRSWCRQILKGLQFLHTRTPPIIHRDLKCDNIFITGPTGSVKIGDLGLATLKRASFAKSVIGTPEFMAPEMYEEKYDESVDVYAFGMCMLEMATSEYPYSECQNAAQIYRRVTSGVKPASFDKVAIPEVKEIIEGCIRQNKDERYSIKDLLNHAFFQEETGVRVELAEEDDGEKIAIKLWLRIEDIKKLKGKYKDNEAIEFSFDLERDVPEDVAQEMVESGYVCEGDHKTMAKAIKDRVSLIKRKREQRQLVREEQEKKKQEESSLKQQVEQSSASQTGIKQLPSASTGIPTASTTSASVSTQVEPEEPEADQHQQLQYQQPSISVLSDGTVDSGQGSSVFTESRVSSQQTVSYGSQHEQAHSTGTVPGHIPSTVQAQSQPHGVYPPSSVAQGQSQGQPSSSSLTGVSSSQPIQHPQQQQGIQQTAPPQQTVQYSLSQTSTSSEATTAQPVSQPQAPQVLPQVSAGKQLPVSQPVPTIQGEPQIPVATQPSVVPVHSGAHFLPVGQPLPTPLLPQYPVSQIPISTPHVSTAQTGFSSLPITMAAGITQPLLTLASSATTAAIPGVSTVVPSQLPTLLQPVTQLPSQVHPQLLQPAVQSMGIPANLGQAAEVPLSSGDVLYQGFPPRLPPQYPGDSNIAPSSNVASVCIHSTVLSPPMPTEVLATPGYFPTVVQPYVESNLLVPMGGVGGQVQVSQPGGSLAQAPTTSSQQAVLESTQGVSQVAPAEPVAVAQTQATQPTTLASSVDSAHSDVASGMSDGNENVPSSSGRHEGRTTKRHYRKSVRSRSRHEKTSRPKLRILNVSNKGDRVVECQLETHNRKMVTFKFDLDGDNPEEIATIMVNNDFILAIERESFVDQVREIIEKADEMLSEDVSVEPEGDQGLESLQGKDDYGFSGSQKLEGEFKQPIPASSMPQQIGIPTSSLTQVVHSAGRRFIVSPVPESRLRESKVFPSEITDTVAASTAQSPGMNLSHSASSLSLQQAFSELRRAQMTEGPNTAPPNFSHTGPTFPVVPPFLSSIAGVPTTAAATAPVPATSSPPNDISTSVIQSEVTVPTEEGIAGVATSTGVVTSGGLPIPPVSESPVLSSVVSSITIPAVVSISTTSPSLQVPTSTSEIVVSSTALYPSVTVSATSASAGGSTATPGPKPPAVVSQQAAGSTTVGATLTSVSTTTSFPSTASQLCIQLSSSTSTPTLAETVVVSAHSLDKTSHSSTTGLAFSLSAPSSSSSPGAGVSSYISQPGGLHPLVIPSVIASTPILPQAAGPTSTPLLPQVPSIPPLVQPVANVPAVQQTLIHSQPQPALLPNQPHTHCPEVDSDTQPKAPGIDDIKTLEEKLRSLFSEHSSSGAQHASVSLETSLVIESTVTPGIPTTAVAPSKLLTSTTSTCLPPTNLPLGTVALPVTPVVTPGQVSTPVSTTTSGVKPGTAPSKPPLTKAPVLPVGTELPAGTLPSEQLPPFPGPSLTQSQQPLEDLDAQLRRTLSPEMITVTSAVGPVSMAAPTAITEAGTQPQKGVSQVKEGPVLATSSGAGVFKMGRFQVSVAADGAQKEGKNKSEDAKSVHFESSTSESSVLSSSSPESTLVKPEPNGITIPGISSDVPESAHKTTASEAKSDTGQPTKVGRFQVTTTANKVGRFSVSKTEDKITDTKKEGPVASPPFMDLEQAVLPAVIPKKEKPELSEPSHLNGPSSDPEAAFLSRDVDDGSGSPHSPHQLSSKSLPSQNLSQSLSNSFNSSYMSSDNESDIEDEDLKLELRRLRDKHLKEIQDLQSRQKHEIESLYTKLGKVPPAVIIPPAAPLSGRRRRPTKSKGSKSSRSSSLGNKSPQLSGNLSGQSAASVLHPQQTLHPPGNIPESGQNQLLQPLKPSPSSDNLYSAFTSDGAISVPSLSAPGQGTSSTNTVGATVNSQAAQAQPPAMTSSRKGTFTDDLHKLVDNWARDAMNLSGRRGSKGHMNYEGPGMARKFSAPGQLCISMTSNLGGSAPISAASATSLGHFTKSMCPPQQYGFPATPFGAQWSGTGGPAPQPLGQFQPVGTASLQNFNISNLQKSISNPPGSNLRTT
Sequence of IRR (P14616 27-1297, species assumed): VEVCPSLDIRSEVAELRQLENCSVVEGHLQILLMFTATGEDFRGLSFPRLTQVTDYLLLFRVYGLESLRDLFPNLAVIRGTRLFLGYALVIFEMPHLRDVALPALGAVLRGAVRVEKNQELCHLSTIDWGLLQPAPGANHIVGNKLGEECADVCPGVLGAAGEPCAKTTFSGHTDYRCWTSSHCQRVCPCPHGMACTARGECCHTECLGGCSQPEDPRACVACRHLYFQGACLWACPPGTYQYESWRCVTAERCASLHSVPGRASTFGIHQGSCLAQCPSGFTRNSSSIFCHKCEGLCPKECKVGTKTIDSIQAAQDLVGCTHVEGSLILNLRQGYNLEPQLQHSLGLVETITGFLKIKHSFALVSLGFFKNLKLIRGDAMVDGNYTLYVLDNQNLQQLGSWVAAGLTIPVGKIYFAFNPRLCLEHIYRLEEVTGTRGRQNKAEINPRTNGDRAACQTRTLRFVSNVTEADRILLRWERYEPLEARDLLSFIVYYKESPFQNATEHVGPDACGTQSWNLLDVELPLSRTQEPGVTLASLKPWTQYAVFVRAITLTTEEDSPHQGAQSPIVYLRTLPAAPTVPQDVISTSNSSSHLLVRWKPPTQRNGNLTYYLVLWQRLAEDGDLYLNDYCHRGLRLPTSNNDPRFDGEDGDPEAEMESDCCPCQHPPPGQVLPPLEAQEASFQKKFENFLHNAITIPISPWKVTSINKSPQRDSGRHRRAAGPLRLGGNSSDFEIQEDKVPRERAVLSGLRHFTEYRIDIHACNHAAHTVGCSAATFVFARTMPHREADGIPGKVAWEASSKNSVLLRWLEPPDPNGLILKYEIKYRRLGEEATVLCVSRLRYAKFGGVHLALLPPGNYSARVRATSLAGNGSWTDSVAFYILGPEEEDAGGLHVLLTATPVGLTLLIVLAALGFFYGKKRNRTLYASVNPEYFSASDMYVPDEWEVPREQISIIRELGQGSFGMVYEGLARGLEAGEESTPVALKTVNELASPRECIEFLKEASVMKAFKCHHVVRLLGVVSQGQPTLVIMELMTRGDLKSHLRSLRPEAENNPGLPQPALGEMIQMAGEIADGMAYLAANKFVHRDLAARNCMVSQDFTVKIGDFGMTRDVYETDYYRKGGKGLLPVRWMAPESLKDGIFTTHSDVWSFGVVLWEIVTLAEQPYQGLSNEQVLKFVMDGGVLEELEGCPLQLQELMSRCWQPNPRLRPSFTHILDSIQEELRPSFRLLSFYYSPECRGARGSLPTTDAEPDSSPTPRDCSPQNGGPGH
Sequence of TESK1 (Q15569 whole entry, species assumed): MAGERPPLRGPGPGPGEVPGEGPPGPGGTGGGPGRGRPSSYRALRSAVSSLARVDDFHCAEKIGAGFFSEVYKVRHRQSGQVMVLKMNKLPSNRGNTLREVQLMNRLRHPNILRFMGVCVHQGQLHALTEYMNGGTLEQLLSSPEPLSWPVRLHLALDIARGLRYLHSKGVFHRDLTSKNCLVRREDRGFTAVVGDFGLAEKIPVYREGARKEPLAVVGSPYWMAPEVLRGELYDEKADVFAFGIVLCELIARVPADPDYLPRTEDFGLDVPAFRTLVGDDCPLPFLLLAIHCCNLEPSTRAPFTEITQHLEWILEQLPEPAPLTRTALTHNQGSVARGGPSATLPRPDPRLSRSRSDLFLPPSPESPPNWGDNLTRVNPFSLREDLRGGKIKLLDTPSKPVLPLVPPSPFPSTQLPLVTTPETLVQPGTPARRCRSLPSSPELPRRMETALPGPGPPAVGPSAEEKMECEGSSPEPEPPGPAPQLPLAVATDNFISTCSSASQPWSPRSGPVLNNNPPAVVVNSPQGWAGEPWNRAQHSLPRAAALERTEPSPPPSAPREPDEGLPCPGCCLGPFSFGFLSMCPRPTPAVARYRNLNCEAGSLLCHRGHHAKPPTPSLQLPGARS
Sequence of PIM2 (Q9P1W9 whole entry, species assumed): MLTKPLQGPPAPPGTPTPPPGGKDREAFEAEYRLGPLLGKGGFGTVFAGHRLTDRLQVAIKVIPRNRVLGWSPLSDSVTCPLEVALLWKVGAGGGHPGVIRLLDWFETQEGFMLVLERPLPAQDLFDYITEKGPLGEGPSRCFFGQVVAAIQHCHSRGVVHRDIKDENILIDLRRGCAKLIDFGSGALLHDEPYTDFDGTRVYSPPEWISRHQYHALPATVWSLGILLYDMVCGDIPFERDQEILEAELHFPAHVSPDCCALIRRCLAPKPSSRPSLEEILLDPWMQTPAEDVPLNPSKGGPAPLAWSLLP

As to `CC(=O)Nc1nc2cc(O)ccc2s1` [Compound 01-66, N-(5-hydroxybenzo[d]thiazol-2-yl)acetamide], the remaining activity at 100 µM on IRR is 30%; at PIM2 it was 16%; on SIK3, 57%; at TIE2 it was 75%; on TTBK1, 68%; on TSSK1 it was 65%. The remaining activity at 100 µM came out at 94% at TESK1; 84% on MST4; 63% at IR; 113% on ZAP70; 48% at MINK1; 79% on MST3. Moreover, the remaining activity at 100 µM was 101% at WNK1, 94% at MEKK1 and 71% on CDK2-Cyclin A.
In the case of `CC(=O)Nc1nc2ccc(O)cc2s1` [Compound 01-71], the remaining activity at 100 µM came to 34% on IRR (setting [1]); 38% on PIM2 (setting [1]); 46% at SIK3 (setting [1]); 65% at TIE2 (setting [1]); 61% on TTBK1 (setting [1]); 67% at TSSK1 (setting [1]). In addition, the remaining activity at 100 µM at TESK1 (setting [1]) was found to be 61%; on MST4 (setting [1]), 70%; at IR (setting [1]), 35%; on ZAP70 (setting [1]) it was 126%; on MINK1 (setting [1]), 28%; at MST3 (setting [1]), 66%. For the same molecule, the remaining activity at 100 µM on WNK1 (setting [1]) was found to be 96%; on MEKK1 (setting [1]), 96%; at CDK2-Cyclin A (setting [1]) it was 30%.
`CC(=O)Nc1nc2ccc(C(F)(F)F)cc2s1` [Compound 01-90]: the remaining activity at 100 µM on IRR (setting [1]) is 49%; at PIM2 (setting [1]), 94%; on SIK3 (setting [1]), 82%; at TIE2 (setting [1]), 60%; on TTBK1 (setting [1]), 88%; on TSSK1 (setting [1]), 90%. The remaining activity at 100 µM was 30% on PDGFRA; 93% at TESK1 (setting [1]); 89% on MST4 (setting [1]); 84% at IR (setting [1]); 122% on ZAP70 (setting [1]); 35% on MINK1 (setting [1]). Moreover, the remaining activity at 100 µM at MST3 (setting [1]) worked out at 85%; on WNK1 (setting [1]), 100%; on MEKK1 (setting [1]), 90%; at CDK2-Cyclin A (setting [1]) it was 22%.
Regarding `CC(=O)Nc1nc2ccc(C#N)cc2s1` [Compound 01-94], the remaining activity at 100 µM on IRR (setting [1]) amounted to 42%; on PIM2 (setting [1]) it was 73%; at SIK3 (setting [1]), 73%; at TIE2 (setting [1]), 85%; at TTBK1 (setting [1]), 73%; on TSSK1 (setting [1]) it was 55%. Moreover, the remaining activity at 100 µM on PDGFRA was 40%; at TESK1 (setting [1]) it was 90%; on MST4 (setting [1]), 75%; at IR (setting [1]), 81%; on ZAP70 (setting [1]), 118%; at MINK1 (setting [1]), 40%. For the same molecule, the remaining activity at 100 µM is 71% at MST3 (setting [1]), 101% at WNK1 (setting [1]), 94% on MEKK1 (setting [1]) and 11% on CDK2-Cyclin A (setting [1]).
On to `CC(=O)Nc1cccc(C(=O)Nc2nc3ccc(O)cc3s2)c1` [Compound 03-58], for which the “residual kinase activity, ERK5” value on ERK5 was 31.
On to `CC(=O)NC(C)C(=O)Nc1nc2ccc(C(F)(F)F)cc2s1` (stereo not drawn) [Compound 03-80], for which the “residual kinase activity, ERK5” value on ERK5 came out at 27.
The same measure, in the same setting: under `CC(=O)Nc1ccccc1C(=O)Nc1nc2ccc(O)cc2s1` [Compound 08-39] stands 47.
Still for that read-out and setting: under `COc1ccc2sc(NC(=O)c3ccc(NC(C)=O)cc3)nc2c1` [MS:LY-2-77] stands 74.
For the molecule `COc1ccc2sc(NC(=O)c3cccc(NC(C)=O)c3)nc2c1` [MS:LY-2-85], the “residual kinase activity, ERK5” value on ERK5 is 45.
`CC(=O)Nc1ccc(C(=O)Nc2nc3cc(O)ccc3s2)cc1` [MS:LY-2-87]: at ERK5, the “residual kinase activity, ERK5” value is 54.
Same read-out and setting: under `CC(=O)Nc1cccc(C(=O)Nc2nc3cc(O)ccc3s2)c1` [MS:LY-2-89] stands 32.
